The compounds below were run on NCI-H295R (assay: IC50 (antiproliferative, ATP content)). Details: 48 h.
Summary of the method: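 Following overnight culture of adrenocortical carcinoma cells (1500 per well) in 1536-well plates with serum-free ITS-supplemented DMEM, library compounds were pin-transferred at 8 final concentrations from 0.6 nM to 46 µM. Incubation lasted 48 h at 37 °C, 5% CO2, and the CellTiter-Glo signal was read after 20 min at room temperature. Data were fitted with a four-parameter logistic model. Each IC50 came from that fit after normalisation to vehicle and positive-control wells, and compounds without a concentration response were reported as above the top dose.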
C[C@H](N)[C@H](O)c1ccc(O)c(O)c1 was tested, and the IC50 was over 46 µM.
In the case of CC(C)[N+](C)(CCOC(=O)C1c2ccccc2Oc2ccccc21)C(C)C.[Br-], the IC50 is reported as over 46 µM.
C[C@H](N)[C@H](O)c1cccc(O)c1.O=C(O)[C@@H](O)[C@@H](O)C(=O)O showed an IC50 of over 46 µM.
Compound CN(C)CCC(O)(c1ccccc1)c1ccccc1Cl (stereo not drawn) has an IC50 of over 46 µM.
Work on CCCCCCCCCCCCCCCC(=O)NCCO yielded an IC50 of over 46 µM.
O=C(C=Cc1ccccc1)NCCO gave an IC50 of over 46 µM.
COC1=C(OC)C(=O)C(C/C=C(\C)CC/C=C(\C)CC/C=C(\C)CC/C=C(\C)CC/C=C(\C)CC/C=C(\C)CC/C=C(\C)CC/C=C(\C)CC/C=C(\C)CCC=C(C)C)=C(C)C1=O showed an IC50 of over 46 µM.
Compound Nc1c(CC(=O)[O-])cccc1C(=O)c1ccc(Br)cc1.Nc1c(CC(=O)[O-])cccc1C(=O)c1ccc(Br)cc1.O.O.O.[Na+].[Na+] has an IC50 of over 46 µM.
Compound CN(C)c1ccc(O)c2c1C[C@H]1C[C@H]3[C@H](N(C)C)C(O)=C(C(N)=O)C(=O)[C@@]3(O)C(O)=C1C2=O.Cl has an IC50 of over 46 µM.
In the case of CC1C(=O)CC2C3(C)CCC2(C(C)C(=O)O)C(=O)C13 (stereo not drawn), the IC50 is reported as over 46 µM.
O=C([O-])c1cc(N=Nc2ccc(O)c(C(=O)[O-])c2)ccc1O.[Na+].[Na+] gave an IC50 of over 46 µM.
Compound C1CCC(NC2CCCCC2)CC1 has an IC50 of over 46 µM.
With C[C@@H]1CN([C@H]2CC[C@](C#N)(c3ccc(F)cc3)CC2)CC[C@]1(C(=O)O)c1ccccc1.Cl the IC50 was over 46 µM.
For CC(C)(CO)[C@@H](O)C(=O)NCCCC(=O)[O-].CC(C)(CO)[C@@H](O)C(=O)NCCCC(=O)[O-].[Ca+2], the IC50 was over 46 µM.
Cc1ccnc(NS(=O)(=O)c2ccc(N)cc2)n1 gave an IC50 of over 46 µM.
Compound C#C[C@]1(O)C=C[C@H]2[C@@H]3CCC4=CC(=O)CC[C@@H]4[C@H]3CC[C@@]21CC has an IC50 of over 46 µM.
For Cc1ccccc1CNc1ncnc2c1ncn2[C@@H]1O[C@H](CO)[C@@H](O)[C@H]1O, the IC50 was over 46 µM.
Compound C=C1CC[C@@]2(O)[C@H]3Cc4ccc(O)c5c4[C@@]2(CCN3CC2CC2)[C@H]1O5 has an IC50 of over 46 µM.
Work on CCN(C(C)=O)c1cccc(-c2ccnc3c(C#N)cnn23)c1 yielded an IC50 of over 46 µM.
C[N+](C)(C)CC(=O)O.[Cl-] gave an IC50 of over 46 µM.
Work on C/14=C(/C[C@H]([C@H]2[C@H]3[C@](CC[C@H]\12)([C@@](C#C)(O)CC3)C)C)CC(CC4)=O yielded an IC50 of over 46 µM.
CO/N=C(\C(=O)N[C@@H]1C(=O)N2C(C(=O)O)=C(C[N+]3(C)CCCC3)CS[C@H]12)c1csc(N)n1.Cl.O.[Cl-] was tested, and the IC50 was over 46 µM.
FC(F)(F)c1ccccc1-n1ccnc1 showed an IC50 of over 46 µM.
Br.COc1c2c(cc3c1OCO3)CCN(C)C2 gave an IC50 of over 46 µM.
With NC[C@H]1O[C@H](O[C@H]2[C@H](O)[C@@H](O[C@H]3O[C@H](CO)[C@@H](O)[C@H](N)[C@H]3O)[C@H](N)C[C@@H]2N)[C@H](O)[C@@H](O)[C@@H]1O.O=S(=O)(O)O the IC50 was over 46 µM.
Work on O=C1N([C@@H](CC8=CC=CC=C8)C(N3CCC[C@@]23[H])=O)[C@@]2(O)O[C@]([C@H](C)C)1N[C@]([C@@H]6C[C@]([C@]7([H])N(C)C6)([H])C5=C4C(C7)=CNC4=CC=C5)=O yielded an IC50 of over 46 µM.
For CC(C(=O)O)c1ccc2c(c1)[nH]c1ccc(Cl)cc12 (stereo not drawn), the IC50 was over 46 µM.
CN(C)[C@@H]1C(O)=C(C(=O)NCN2CCCC2)C(=O)[C@@]2(O)C(O)=C3C(=O)c4c(O)cccc4[C@@](C)(O)C3C[C@@H]12.Cl (stereo partly drawn) was tested, and the IC50 was over 46 µM.
OCCO[C@@H]1[C@@H](O)[C@H](O)[C@@H](CO)O[C@@H]1O was tested, and the IC50 was over 46 µM.
Compound Nc1cc(-c2ccncc2)c[nH]c1=O has an IC50 of over 46 µM.
Nc1nc(=O)c2c([nH]1)NCC(CNc1ccc(C(=O)N[C@@H](CCC(=O)[O-])C(=O)[O-])cc1)N2C=O.[Ca+2] (stereo partly drawn) was tested, and the IC50 was over 46 µM.
In the case of CN[C@H](CC(C)C)C(=O)N[C@H]1C(=O)N[C@@H](CC(N)=O)C(=O)N[C@H]2C(=O)N[C@H]3C(=O)N[C@H](C(=O)N[C@@H](C(=O)O)c4cc(O)cc(O)c4-c4cc3ccc4O)[C@H](O)c3ccc(c(Cl)c3)Oc3cc2cc(c3O[C@@H]2O[C@H](CO)[C@@H](O)[C@H](O)[C@H]2O[C@H]2C[C@](C)(N)C(O)[C@H](C)O2)Oc2ccc(cc2Cl)[C@H]1O.Cl (stereo partly drawn), the IC50 is reported as over 46 µM.
With CC(C)(S)[C@@H](N)C(=O)O the IC50 was over 46 µM.
NC(=O)c1ccc([N+](=O)[O-])cc1Cl gave an IC50 of over 46 µM.
CN(C(=O)CN(CCO)CC(=O)N(C)C(C)(C)Cc1ccccc1)C(C)(C)Cc1ccccc1 showed an IC50 of over 46 µM.
In the case of O=C(O)c1ccc(NC2OC[C@@H](O)[C@H](O)[C@H]2O)cc1 (stereo partly drawn), the IC50 is reported as over 46 µM.
Compound NCCCCCC(=O)O has an IC50 of over 46 µM.
Compound NC(=O)N1c2ccccc2C=Cc2ccccc21 has an IC50 of over 46 µM.
For CCC1(C)CC(=O)NC(=O)C1, the IC50 was over 46 µM.
In the case of Cl.Nc1cc(Cl)c(NC2=NCCN2)c(Cl)c1, the IC50 is reported as over 46 µM.
CC(=C\c1ccccc1)/C=C1/SC(=S)N(CC(=O)O)C1=O was tested, and the IC50 was over 46 µM.
O=C1NS(=O)(=O)c2ccccc21 showed an IC50 of over 46 µM.
In the case of C[C@H]1O[C@H]1P(=O)([O-])[O-].[Ca+2], the IC50 is reported as over 46 µM.
CCCCC(CC)CN1CN(CC(CC)CCCC)CC(C)(N)C1 (stereo not drawn) showed an IC50 of over 46 µM.
In the case of CC(C)CCC[C@@H](C)[C@H]1CC[C@H]2[C@@H]3CC[C@@H]4C[C@H](O)CC[C@]4(C)[C@H]3CC[C@]12C, the IC50 is reported as over 46 µM.
Compound CC1=C2[C@H]3OC(=O)[C@@H](C)[C@@H]3CC[C@@]2(C)C=CC1=O has an IC50 of over 46 µM.
COc1ccc(C(=O)c2c(C)n(CCN3CCOCC3)c3ccccc23)cc1 showed an IC50 of over 46 µM.
NC(=O)N[C@@H](CCC(=O)O)C(=O)O showed an IC50 of over 46 µM.
Work on NCCNCCNCCNCCN yielded an IC50 of over 46 µM.
With Brc1c(NC2=NCCN2)ccc2nccnc12 the IC50 was over 46 µM.
CN1CCOC(c2ccccc2)c2ccccc2C1.Cl (stereo not drawn) was tested, and the IC50 was over 46 µM.
Work on Cc1cc(=O)n(-c2ccccc2)n1C yielded an IC50 of over 46 µM.
Work on COc1ccccc1OCC(O)COC(N)=O (stereo not drawn) yielded an IC50 of over 46 µM.
With [H][C@@]1(CC\C3=C(C4=CC=CS4)/C2=CC=CS2)[N@+](CCCC1)(C3)C.[Br-] the IC50 was over 46 µM.
CCCNC(=O)NS(=O)(=O)c1ccc(Cl)cc1 showed an IC50 of over 46 µM.
CCCCNc1ccc(C(=O)OCCOCCOCCOCCOCCOCCOCCOCCOCCOC)cc1 was tested, and the IC50 was over 46 µM.
Work on Oc1cc(Cl)c(Cl)cc1Cl yielded an IC50 of over 46 µM.
Work on CC1(O)CCC(C(C)(C)O)CC1 (stereo not drawn) yielded an IC50 of over 46 µM.
CO/N=C(\C(=O)N[C@@H]1C(=O)N2C(C(=O)O)=C(Cn3ccc(=N)n3CCO)CS[C@H]12)c1csc(N)n1.O=S(=O)(O)O gave an IC50 of over 46 µM.
Work on OB(O)O yielded an IC50 of over 46 µM.
COc1cc(C(=S)N2CCOCC2)ccc1O gave an IC50 of over 46 µM.
In the case of O=[C@](CO)[C@](CC2)(O)[C@](CC1)(C)[C@]2([H])[C@@](CC4)([H])[C@@]1([H])[C@](CC3)(C)C4=CC3=O, the IC50 is reported as over 46 µM.
O=C(O)CCc1nc(-c2ccccc2)c(-c2ccccc2)o1 was tested, and the IC50 was over 46 µM.
With Cl.Cn1c(NCCN(CCO)CCCc2ccc([N+](=O)[O-])cc2)cc(=O)n(C)c1=O the IC50 was over 46 µM.
With COc1ccc2[nH]cc(CCNC(C)=O)c2c1 the IC50 was over 46 µM.
CCc1cccc2c3c([nH]c12)C(CC)(CC(=O)O)OCC3 (stereo not drawn) gave an IC50 of over 46 µM.
C[N+]1(C)CCCC(OC(=O)C(O)(c2ccccc2)c2ccccc2)C1.[Br-] (stereo not drawn) was tested, and the IC50 was over 46 µM.
Compound Cc1ccc(C(=O)Nc2ccc(S(=O)(=O)O)c3cc(S(=O)(=O)O)cc(S(=O)(=O)O)c23)cc1NC(=O)c1cccc(NC(=O)Nc2cccc(C(=O)Nc3cc(C(=O)Nc4ccc(S(=O)(=O)O)c5cc(S(=O)(=O)O)cc(S(=O)(=O)O)c45)ccc3C)c2)c1 has an IC50 of over 46 µM.
NC[C@H]1O[C@H](O[C@H]2[C@H](O[C@@H]3O[C@H](CO)[C@@H](O)[C@H]3O)C(O)[C@H](N)C[C@@H]2N)[C@H](N)[C@@H](O)[C@@H]1O.O=S(=O)(O)O (stereo partly drawn) was tested, and the IC50 was over 46 µM.
CC(=O)OC[C@H]2O[C@@H](N1\N=C/C(=O)NC1=O)[C@H](OC(C)=O)[C@@H]2OC(C)=O was tested, and the IC50 was over 46 µM.
CC(C)[C@@H](C)/C=C/[C@@H](C)[C@H]1CC[C@H]2/C(=C/C=C3\C[C@@H](O)CC[C@@H]3C)CCC[C@]12C was tested, and the IC50 was over 46 µM.
CC(=O)Nc1ccc(OC(C)=O)cc1 showed an IC50 of over 46 µM.
For C[C@H]1CCC[C@H](O)CCCCCc2cc(O)cc(O)c2C(=O)O1, the IC50 was over 46 µM.
Compound CCOc1cc(N)c(Cl)cc1C(=O)NCC1CN(Cc2ccc(F)cc2)CCO1.O=C(O)CC(O)(CC(=O)O)C(=O)O (stereo not drawn) has an IC50 of over 46 µM.
Cc1ccc2nc(N)[nH]c(=O)c2c1Sc1ccncc1.Cl.Cl showed an IC50 of over 46 µM.
Work on CC[C@H](NC(C)C)[C@H](O)c1ccc(O)c2[nH]c(=O)ccc12 yielded an IC50 of over 46 µM.
For COc1ccc(C(=O)CCC(=O)O)c2ccccc12, the IC50 was over 46 µM.
Compound CCCCC[C@H](O)/C=C/[C@@H]1[C@@H](C/C=C\CCCC(=O)O)[C@@H](O)C[C@H]1O has an IC50 of over 46 µM.
CC1CS(=O)(=O)CCN1/N=C/c1ccc([N+](=O)[O-])o1 (stereo not drawn) was tested, and the IC50 was over 46 µM.
S=C=Nc1ccc(N=C=S)cc1 showed an IC50 of over 46 µM.
With CC12CCC(C1)C(C)(C)C2=O (stereo not drawn) the IC50 was over 46 µM.
[Na+].[O-]Cl showed an IC50 of over 46 µM.
In the case of CC(C)NCC(O)c1ccc(NS(C)(=O)=O)cc1 (stereo not drawn), the IC50 is reported as over 46 µM.
c13c(C(\C(=C/N1C2CC2)C(O)=O)=O)c(c(c(c3F)N4C[C@@H](N[C@@H](C4)C)C)F)N was tested, and the IC50 was over 46 µM.
Compound O=C(O)c1cccnc1 has an IC50 of over 46 µM.
With COP(=O)(OC)OC(c1ccc(Cl)cc1)P(=O)(OC)OC (stereo not drawn) the IC50 was over 46 µM.
In the case of CCN(CC)CCCC(C)Nc1cc(C=Cc2ccccc2Cl)nc2cc(Cl)ccc12 (stereo not drawn), the IC50 is reported as over 46 µM.
Cc1cc(-n2nc3ccc(Cl)cc3n2)c(O)c(C(C)(C)C)c1 showed an IC50 of over 46 µM.
With Cc1ccccc1/N=N/c1ccc(/N=N/c2c(O)ccc3ccccc23)c(C)c1 the IC50 was over 46 µM.
NC/C=C/C(=O)O gave an IC50 of over 46 µM.
CN1CCN(C2=Nc3ccccc3Sc3ccc(Cl)cc32)CC1 gave an IC50 of over 46 µM.
In the case of NNc1nnc(NN)c2ccccc12, the IC50 is reported as over 46 µM.
CN(C)CCN(Cc1cccs1)c1ccccn1.Cl showed an IC50 of over 46 µM.
